Experimental data from patent publication US20240132887A1, “PROTEIN ARGININE METHYLTRANSFERASE 9 INHIBITORS AND METHODS OF USE” (City of Hope, priority 2022, published 2024).

What was measured:
[1] = biological target: T1, PRMT9 (Homo sapiens, UniProt Q6P2P2); test: In-house R493 methylation assay (PABPC1 peptide, SAM, dot blot with anti-R493me antibody); assay type: biochemical; conditions: for PRMT9 inhibition (catalytic activity screen of top 20 compounds): compounds 10 μM, PRMT9 pretreated 1 h
T1 construct: Myc; made in house
T1 sequence (Q6P2P2 1-845): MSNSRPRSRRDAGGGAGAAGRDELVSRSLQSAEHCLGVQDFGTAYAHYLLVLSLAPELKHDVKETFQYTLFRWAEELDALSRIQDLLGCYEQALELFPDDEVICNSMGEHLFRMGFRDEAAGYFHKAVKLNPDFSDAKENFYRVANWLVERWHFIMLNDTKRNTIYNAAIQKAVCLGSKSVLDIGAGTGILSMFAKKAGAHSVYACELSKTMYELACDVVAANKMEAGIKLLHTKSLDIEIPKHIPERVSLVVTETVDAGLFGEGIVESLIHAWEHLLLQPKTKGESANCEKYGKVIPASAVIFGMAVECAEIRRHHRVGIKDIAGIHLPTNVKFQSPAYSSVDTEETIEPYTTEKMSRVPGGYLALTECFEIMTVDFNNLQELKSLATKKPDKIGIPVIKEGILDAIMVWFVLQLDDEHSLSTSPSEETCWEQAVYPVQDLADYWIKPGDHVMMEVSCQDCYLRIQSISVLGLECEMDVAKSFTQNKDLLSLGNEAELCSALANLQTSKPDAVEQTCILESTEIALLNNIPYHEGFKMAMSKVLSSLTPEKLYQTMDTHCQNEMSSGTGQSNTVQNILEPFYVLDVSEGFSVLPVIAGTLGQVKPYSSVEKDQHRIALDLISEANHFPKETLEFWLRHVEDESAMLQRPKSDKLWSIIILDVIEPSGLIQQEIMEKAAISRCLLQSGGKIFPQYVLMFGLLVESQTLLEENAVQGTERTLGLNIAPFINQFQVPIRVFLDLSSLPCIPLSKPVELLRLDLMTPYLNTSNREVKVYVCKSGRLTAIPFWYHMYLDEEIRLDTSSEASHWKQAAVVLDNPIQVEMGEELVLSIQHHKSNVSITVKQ

[2] = tested on: MNCs from AML BM specimens; test: Primary AML MNC ex-vivo culture (CyTOF, flow cytometry); assay type: cell-based, human; conditions: αPD-1 alone or combined with LD2, 4 days ex-vivo

In the case of `COc1ccc2c(c1)c1ccc3c(c1n2C)C(=O)C=CC3=O` [NSC641396], the “PRMT9 inhibition (catalytic activity screen of top 20 compounds)” value (from here on “PRMT9 inhibition”) [1] is reported as “most potent PRMT9 inhibition” and the “PRMT9 inhibitory effects (PABP1 R493me levels)” value ([1]; different concentrations of each compound, comparison among the three NSC compounds) is reported as “most potent PRMT9 inhibitory effects”.

For `Cc1cccc2c1c1ccc3c(c1n2C)C(=O)C=CC3=O` [NSC645330], the “PRMT9 inhibition” value [1] was “most potent PRMT9 inhibition”.

With “αPD-1: anti-PD-1 (pembrolizumab, SIM0010, BioXCell) used in ex-vivo AML cultures” the “proportion / frequency of tumor cells” value [2] was “marginally decreased the proportion of tumor cells”.

For `Cc1ccc2c(c1)c1ccc3c(c1n2C)C(=O)C=CC3=O` [NSC661221], the “PRMT9 inhibition” value [1] was “most potent PRMT9 inhibition”.
